Data taken from patent US20080199451A1, “Composition for the Treatment and/or Prevention of Attacks by Biological Agents” (priority 2005, published 2008).

Assays:
[1] = system: Cacopsylla pyri; assay: Field test on pear lice (Example 11); format: in vivo
Description: Pear plants with a high level of lice infestation were treated on May 6 and 20 2006. […]

[2] = system: European red mite Panonychus ulmi; assay: Ovicide activity on European red mite eggs on beet leaf discs (Example 6); format: in vivo; conditions: after 8 days; leaf discs immersed five seconds; oil 1.5%, meal 2 g l^−1, hexythiazox 50 mg p.a. l^−1
Description: Beet leaf discs measuring 60 mm were placed in a 90 mm diameter Petri dish and kept in a climatic cell at 24° C., 75% R.H. with 17 hours of light. Fifteen female mites were placed on each leaf disc to lay their eggs. The females were removed after 24 hours and the eggs were counted. Each group consisted of three leaf discs. The treatments were carried out with the “deep test” method: the leaf discs were immersed for five seconds in a suspension consisting of 1.5% vegetable oil, 1.5% vegetable oil+2 g l^−1 carinata meal, 1.5% UF mineral oil+2 g l^−1 carinata meal or the acaricide hexythiazox Matacar (Sipcam) at a dose of 50 mg p.a. I^−1. The control was immersed in water. The ovicide activity was assessed starting on the fourth day and every 2 days up to the eighth day, calculating the percentage of hatched eggs estimated indirectly by counting the live offspring.

Compound | surviving offspring ([1]; ten days after the first treatment) | offspring or nymphs found ([1]; third observation (30 days after the second treatment)) | hatched eggs [2]
Abamectin | 22 | no offspring or nymphs were found | –
C[C@@H]1[C@@H](c2ccc(Cl)cc2)SC(=O)N1C(=O)NC1CCCCC1 [commercial acaricide, hexythiazox] | – | – | 23.4%
